Several values for one entry are separate records, joined by “and”; a condition that tells them apart may be missing. Equal values may be shown once. Activity calls are given as the source filed them.
What was measured:
[1] = target: T1, Luciferin 4-monooxygenase (Photinus pyralis, UniProt P08659); experiment: Counter Screen for Luciferase-based Assay Positives. [Related pubchem assays: 620, 618, 411 ]
[2] = target: T1, Luciferin 4-monooxygenase; experiment: firefly luciferase enzyme inhibitors, dose response, biochemical, luminescence (AID 1891)
[3] = Luminescence Cell-Based Dose Confirmation HTS to Identify Inhibitors of Platelet Dense Granule Release. [Related pubchem assays: 1663 (Primary HTS), 1678 (Summary of Project)]; assay type: functional
HT-1080 = experiment: cytotoxicity in HT1080 fibrosarcoma cells, cell-based, fluorescence readout (AID 620); assay type: functional; details: Homo sapiens
Mucolipin-3 = target: T2, Mucolipin-3 (Homo sapiens, UniProt Q8TDD5); experiment: Dose response cell-based high-throughput screening assay for agonists of the transient receptor potential channel ML3 (TRPML3). [Related pubchem assays: 1526, 1424, 1448 ]; assay type: functional
T2 sequence (Q8TDD5 whole entry): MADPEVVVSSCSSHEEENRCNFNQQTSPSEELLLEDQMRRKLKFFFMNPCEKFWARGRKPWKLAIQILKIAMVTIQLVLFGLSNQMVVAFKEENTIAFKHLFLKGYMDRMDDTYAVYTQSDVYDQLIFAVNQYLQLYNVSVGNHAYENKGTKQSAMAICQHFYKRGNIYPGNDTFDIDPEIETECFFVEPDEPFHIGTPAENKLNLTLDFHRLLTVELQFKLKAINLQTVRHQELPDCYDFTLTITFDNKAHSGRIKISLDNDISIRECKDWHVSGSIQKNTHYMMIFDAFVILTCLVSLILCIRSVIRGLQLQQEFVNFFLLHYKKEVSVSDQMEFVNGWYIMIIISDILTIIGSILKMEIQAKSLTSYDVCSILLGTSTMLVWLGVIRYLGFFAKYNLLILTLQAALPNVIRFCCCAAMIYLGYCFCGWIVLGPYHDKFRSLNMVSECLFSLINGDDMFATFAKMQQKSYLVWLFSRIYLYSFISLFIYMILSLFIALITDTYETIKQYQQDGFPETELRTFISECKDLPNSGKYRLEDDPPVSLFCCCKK

Ion channel NompC = Ion channel NompC (Danio rerio, UniProt Q7T1G6); experiment: Fluorescence counterscreen assay for TRPML3 agonists: dose response cell-based high-throughput screening assay to identify agonists of the transient receptor potential channel N1 (TRPN1). [Related pubchem assays: 1526, 1424, 1448 ]; assay type: functional
Aminopeptidase N = target: T3, Aminopeptidase N (Plasmodium falciparum FcB1/Columbia, UniProt O96935); experiment: P. falciparum M1AAP inhibitors, biochemical, fluorogenic H-Leu-NHMec substrate, 1536-well (AID 1445); design: species or system Plasmodium falciparum 3D7, 3D7
T3 sequence (O96935 whole entry): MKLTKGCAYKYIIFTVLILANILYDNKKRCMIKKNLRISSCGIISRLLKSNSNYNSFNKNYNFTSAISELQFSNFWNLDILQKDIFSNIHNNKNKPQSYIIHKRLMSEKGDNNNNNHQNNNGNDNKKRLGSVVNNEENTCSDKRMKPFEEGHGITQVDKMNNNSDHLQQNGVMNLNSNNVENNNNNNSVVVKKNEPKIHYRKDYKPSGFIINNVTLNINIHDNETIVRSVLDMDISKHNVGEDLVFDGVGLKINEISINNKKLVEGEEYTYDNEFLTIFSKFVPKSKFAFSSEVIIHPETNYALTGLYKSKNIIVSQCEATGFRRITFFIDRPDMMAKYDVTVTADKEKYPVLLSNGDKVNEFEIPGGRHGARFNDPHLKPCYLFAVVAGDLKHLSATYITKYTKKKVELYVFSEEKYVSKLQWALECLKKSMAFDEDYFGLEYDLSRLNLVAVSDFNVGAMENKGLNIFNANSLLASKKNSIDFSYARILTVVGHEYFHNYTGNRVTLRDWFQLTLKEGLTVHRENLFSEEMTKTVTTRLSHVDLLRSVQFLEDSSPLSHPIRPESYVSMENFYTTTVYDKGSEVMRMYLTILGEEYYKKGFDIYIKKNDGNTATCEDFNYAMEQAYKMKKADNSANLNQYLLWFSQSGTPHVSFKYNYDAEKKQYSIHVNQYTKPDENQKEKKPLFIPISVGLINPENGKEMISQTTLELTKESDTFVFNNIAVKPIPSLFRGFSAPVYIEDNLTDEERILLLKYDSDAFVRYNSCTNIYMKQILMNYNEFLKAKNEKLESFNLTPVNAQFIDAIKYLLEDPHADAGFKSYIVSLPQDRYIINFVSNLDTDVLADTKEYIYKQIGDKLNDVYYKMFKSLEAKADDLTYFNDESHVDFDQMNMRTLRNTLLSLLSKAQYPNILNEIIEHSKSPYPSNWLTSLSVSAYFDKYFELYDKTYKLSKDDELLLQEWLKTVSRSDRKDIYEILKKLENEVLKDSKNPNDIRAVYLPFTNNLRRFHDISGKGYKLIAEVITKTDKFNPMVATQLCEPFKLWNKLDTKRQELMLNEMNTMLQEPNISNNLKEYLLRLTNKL

Large T antigen = Large T antigen (Simian virus 40, UniProt P03070); assay type: functional, Betapolyomavirus macacae;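 note: Confirmatory-stage PubChem screen for compounds that inhibit SV40 T antigen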
[4] = target: T4, Mannose-6-phosphate isomerase (Homo sapiens, UniProt P34949); experiment: PMI enzyme inhibitors, confirmation, biochemical, fluorescence intensity (AID 1535)
T4 sequence (P34949 whole entry): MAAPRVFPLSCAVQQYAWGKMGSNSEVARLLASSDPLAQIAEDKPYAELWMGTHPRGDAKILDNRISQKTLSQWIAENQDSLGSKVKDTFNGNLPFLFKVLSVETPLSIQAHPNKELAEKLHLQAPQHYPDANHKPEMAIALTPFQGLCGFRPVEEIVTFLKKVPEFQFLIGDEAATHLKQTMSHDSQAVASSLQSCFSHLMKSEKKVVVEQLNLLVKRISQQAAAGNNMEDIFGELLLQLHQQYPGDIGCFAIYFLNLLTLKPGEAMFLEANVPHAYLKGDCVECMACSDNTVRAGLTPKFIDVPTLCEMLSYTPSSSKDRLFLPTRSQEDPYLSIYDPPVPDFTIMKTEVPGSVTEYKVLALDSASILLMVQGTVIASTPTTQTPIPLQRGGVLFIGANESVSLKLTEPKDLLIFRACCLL

Phosphomannomutase 2 = target: T5, Phosphomannomutase 2 (Homo sapiens, UniProt O15305); experiment: Counter screen SAR assay for PMM2 inhibitors via a fluorescence intensity assay. [Related pubchem assays (depositor defined):AID1545, AID1574]
T5 sequence (O15305 whole entry): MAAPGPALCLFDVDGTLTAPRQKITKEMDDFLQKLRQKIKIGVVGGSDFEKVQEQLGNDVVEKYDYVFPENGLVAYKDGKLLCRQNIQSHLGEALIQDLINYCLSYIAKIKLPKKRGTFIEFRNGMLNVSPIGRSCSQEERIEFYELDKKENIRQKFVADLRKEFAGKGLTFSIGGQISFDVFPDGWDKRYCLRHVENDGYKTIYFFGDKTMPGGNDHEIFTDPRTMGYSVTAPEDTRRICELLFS

Paired box protein Pax-8 = Paired box protein Pax-8 (Homo sapiens, UniProt Q06710); experiment: inhibitors of PAX8-driven TPO luciferase reporter, dose response, RMG-I cells, cherry-pick (AID 687027); assay type: functional, cell-based;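 note: luciferase reporter driven by Pax8 target thyroperoxidase promoter measured by SteadyGlo luminescence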
[5] = NIH:OVCAR-3 ovarian cancer cell cytotoxicity, dose response, PAX8 inhibitor project, plate reader, dry powder samples (AID 743044); assay type: functional, cell-based
[6] = IGROV1 ovarian cancer cell cytotoxicity, dose response, PAX8 inhibitor project, plate reader, dry powder samples (AID 743043); assay type: functional, cell-based; details: IGROV-1
[7] = cytotoxicity in OVCAR8 ovarian cancer cells, dose response, PAX8 project, cell-based, plate reader, dry powder samples (AID 743197); assay type: functional; details: OVCAR-8
[8] = target: Heat shock protein HSP 90-alpha (Homo sapiens, UniProt P07900); experiment: Luminescence-based dose response biochemical high throughput screening assay for inhibitors of the Heat Shock Protein 90 (HSP90). [Related pubchem assays: 1831 (Summary AID.), 1846 (Confirmation screen.), 1789 (Primary screen.)]
Cytochrome P450 3A4 = Cytochrome P450 3A4 (Homo sapiens, UniProt P08684); details: Potency;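 note: confirmatory qHTS run detecting inhibitors and substrates of CYP3A4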
Cytochrome P450 3A4, sequence (P08684 whole entry): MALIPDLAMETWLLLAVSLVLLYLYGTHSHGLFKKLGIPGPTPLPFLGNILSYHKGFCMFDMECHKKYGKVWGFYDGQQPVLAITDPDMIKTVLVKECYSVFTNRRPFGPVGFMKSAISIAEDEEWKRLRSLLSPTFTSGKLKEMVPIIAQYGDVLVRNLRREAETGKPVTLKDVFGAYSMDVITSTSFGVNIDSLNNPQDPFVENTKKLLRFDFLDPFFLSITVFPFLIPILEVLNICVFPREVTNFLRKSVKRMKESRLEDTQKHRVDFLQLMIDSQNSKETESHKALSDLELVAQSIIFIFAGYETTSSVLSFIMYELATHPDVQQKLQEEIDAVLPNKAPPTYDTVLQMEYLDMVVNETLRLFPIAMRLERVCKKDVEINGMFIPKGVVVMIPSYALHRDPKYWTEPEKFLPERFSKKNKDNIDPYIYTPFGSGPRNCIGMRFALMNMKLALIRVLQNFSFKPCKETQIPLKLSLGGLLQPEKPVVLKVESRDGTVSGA

T1 sequence (P08659 whole entry): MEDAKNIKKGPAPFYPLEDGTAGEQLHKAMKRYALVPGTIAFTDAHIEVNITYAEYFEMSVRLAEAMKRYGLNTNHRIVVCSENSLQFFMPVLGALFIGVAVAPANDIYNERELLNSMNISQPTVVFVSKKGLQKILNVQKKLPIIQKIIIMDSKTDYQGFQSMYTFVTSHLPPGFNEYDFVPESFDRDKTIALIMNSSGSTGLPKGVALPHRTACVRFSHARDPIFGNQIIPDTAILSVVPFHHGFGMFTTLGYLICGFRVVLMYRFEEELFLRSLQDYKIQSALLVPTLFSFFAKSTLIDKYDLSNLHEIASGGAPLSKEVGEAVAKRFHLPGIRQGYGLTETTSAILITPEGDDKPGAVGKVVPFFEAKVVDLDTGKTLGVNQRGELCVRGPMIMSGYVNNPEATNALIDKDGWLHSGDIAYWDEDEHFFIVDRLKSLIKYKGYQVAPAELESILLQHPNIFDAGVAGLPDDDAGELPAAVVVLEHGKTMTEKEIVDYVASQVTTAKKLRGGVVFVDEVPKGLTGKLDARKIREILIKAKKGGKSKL
Ion channel NompC, sequence (Q7T1G6 whole entry): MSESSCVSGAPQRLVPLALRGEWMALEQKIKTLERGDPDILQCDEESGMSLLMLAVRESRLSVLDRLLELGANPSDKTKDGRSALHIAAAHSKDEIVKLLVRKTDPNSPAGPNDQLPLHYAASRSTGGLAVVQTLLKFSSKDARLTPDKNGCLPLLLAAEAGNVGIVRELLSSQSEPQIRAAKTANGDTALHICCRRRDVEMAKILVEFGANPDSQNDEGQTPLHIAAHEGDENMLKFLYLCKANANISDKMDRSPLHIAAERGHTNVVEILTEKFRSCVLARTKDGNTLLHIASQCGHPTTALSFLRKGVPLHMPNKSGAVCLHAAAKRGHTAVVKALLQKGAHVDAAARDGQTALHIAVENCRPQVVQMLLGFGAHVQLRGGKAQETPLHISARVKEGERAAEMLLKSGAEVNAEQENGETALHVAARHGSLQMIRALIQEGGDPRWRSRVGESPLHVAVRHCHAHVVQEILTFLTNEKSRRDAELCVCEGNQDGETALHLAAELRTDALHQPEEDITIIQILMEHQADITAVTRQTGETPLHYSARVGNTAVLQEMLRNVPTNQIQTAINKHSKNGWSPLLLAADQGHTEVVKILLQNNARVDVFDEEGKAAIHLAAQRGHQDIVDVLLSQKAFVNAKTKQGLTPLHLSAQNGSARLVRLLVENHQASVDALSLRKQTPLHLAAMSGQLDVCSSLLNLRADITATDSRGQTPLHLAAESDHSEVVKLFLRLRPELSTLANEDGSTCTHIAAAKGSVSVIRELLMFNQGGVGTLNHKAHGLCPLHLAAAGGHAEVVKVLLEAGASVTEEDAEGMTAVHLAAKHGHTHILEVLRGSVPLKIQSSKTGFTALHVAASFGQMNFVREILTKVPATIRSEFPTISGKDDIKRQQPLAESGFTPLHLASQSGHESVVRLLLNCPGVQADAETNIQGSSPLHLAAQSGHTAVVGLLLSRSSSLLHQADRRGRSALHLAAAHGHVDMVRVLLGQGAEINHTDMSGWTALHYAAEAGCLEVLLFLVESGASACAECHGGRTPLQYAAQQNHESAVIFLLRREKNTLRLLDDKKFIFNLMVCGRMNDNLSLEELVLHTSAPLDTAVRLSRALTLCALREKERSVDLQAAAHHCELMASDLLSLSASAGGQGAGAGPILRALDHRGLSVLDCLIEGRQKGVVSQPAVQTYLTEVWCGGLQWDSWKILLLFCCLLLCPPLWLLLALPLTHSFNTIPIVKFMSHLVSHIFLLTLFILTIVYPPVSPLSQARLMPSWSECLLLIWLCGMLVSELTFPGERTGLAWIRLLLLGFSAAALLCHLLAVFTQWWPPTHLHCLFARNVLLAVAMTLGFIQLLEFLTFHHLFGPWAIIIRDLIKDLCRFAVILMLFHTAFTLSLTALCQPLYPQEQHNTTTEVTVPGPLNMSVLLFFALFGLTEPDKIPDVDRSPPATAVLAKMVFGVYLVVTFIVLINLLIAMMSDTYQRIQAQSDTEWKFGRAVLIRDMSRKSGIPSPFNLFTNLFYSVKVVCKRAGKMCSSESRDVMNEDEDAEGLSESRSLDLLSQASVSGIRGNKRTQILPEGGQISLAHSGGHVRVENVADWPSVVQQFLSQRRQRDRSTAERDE
Paired box protein Pax-8, sequence (Q06710 whole entry): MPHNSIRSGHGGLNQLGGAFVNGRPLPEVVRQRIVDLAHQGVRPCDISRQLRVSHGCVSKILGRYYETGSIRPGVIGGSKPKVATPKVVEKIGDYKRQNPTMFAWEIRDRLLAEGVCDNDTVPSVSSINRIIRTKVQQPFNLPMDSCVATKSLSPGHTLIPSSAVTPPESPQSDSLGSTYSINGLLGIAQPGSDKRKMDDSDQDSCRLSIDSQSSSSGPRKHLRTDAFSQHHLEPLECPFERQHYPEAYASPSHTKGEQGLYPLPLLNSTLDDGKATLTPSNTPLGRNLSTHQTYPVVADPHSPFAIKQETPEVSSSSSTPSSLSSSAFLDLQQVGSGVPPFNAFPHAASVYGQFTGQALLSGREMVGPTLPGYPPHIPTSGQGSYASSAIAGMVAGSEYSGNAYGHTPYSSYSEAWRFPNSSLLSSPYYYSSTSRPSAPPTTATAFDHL
Large T antigen, sequence (P03070 whole entry): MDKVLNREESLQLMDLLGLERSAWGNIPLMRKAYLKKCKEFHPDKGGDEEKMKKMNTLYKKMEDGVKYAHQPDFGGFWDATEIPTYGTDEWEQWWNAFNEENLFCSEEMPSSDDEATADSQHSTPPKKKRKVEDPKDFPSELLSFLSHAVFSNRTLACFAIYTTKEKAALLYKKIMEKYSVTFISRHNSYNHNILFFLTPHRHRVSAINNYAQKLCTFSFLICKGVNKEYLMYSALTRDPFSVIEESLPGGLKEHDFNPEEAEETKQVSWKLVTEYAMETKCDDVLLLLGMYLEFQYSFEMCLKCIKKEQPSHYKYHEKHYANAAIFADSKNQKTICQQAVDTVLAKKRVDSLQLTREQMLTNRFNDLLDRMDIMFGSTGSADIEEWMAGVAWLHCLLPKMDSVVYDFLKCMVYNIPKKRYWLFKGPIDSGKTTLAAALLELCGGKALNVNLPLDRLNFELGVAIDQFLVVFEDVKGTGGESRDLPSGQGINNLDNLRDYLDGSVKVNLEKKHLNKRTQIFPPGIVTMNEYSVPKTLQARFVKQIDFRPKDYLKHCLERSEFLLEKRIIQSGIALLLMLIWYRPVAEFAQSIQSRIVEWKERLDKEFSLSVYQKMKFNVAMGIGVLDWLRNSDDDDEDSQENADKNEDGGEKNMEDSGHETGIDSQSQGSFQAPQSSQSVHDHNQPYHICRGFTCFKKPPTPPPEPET

With `COc1cccc(-c2nc(-c3ccccn3)no2)c1` the EC50 [1] was 6.27 µM (active), the EC50 [2] was 4.73 µM (active) and the EC50 [3] was 8.12 µM (active). For the same compound, the EC50 (HT-1080) was > 50 µM (not active).

In the case of `O=S(=O)(c1ccc2ccccc2c1)N1CCCCC1`, the EC50 (Mucolipin-3) is reported as 15.1 µM (not active) and the EC50 (Ion channel NompC) is reported as > 29.9 µM (not active).

With `Cc1ccc(S(=O)(=O)N2CCC(C)CC2)c([N+](=O)[O-])c1` the EC50 (Mucolipin-3) was 3.83 µM (active) and the EC50 (Ion channel NompC) was > 29.9 µM (not active).

In the case of `N=C1/C(=C\c2coc3ccc(O)cc3c2=O)C(=O)N=C2SC=CN12`, the IC50 (Aminopeptidase N) is reported as 57.6 µM (active) and the IC50 (Large T antigen) is reported as 15.8 µM (active).

For `COc1ccc(CCNC(=O)COc2ccc(N(C)S(=O)(=O)c3ccc(Cl)cc3)cc2)cc1`, the EC50 (Mucolipin-3) was 6.34 µM (active) and the EC50 (Ion channel NompC) was > 29.9 µM (not active).

With `Cc1csc(NC(=O)c2cc3c(s2)CCCC3)n1` the EC50 [1] was 2.99 µM (active) and the EC50 (HT-1080) was 25.7 µM (active).

With `CCOC(=O)c1cc(-c2cccc([N+](=O)[O-])c2)nc2[nH]c(=O)[nH]c(=O)c12` the IC50 (Aminopeptidase N) was 7.44 µM (active).

For `O=c1c2ccccc2sn1-c1ncc([N+](=O)[O-])s1`, the IC50 [4] was 22.7 µM (active) and the IC50 (Phosphomannomutase 2) was > 100 µM (inactive).

In the case of `C[C@@H]1CCCCO[C@H](CN(C)Cc2ccc(Cl)c(Cl)c2)[C@H](C)CN([C@@H](C)CO)C(=O)c2cc(NS(=O)(=O)c3ccc(Cl)cc3)ccc2O1`, the AC50 (Paired box protein Pax-8) is reported as 6.76 µM (active), the AC50 [5] is reported as 24.6 µM (active) and the AC50 [6] is reported as 49.7 µM (active). The AC50 [7] was 33.7 µM (active).

In the case of `Cc1ccc(S(=O)(=O)Nc2ccc3c(c2)C(=O)N([C@@H](C)CO)C[C@H](C)[C@H](CN(C)Cc2ccc(C(F)(F)F)cc2)OCCCC[C@H](C)O3)cc1`, the AC50 (Paired box protein Pax-8) is reported as 6.16 µM (active), the AC50 [5] is reported as 29.8 µM (active) and the AC50 [6] is reported as 42.5 µM (active). For the same compound, the AC50 [7] was 25.4 µM (active).

For `O=C(O)c1cc(N/N=C/c2cccnc2)ccc1Cl`, the IC50 [8] was 5.72 µM (active).

With `O=c1cc(-c2ccccc2)oc2cccc(O)c12` [5-HYDROXYFLAVONE] the AC50 (Cytochrome P450 3A4) was 6.31 µM (inconclusive) and 20 µM (inconclusive).

In the case of `C#CCCCCCCCCCCCC(O)CC(O)CO` (stereo not drawn) [AVOCADYNE], the AC50 (Cytochrome P450 3A4) is reported as 39.8 µM (inconclusive).
